# Results as given in ChEMBL document CHEMBL1157354, “Asymmetric synthesis of inhibitors of glycinamide ribonucleotide transformylase” (J Med Chem, 2008).
# Legend:
# CCRF-CEM [1] = assay: Cytotoxicity against folyl-poly-glutamate synthetase-deficient human CCRF-CEM cells in absence of thymidine and hypoxanthine
# CCRF-CEM [2] = assay: Cytotoxicity against human CCRF-CEM cells in absence of thymidine and presence of hypoxanthine
# CCRF-CEM [3] = assay: Cytotoxicity against human CCRF-CEM cells in absence of thymidine and hypoxanthine
# CCRF-CEM [4] = assay: Cytotoxicity against human CCRF-CEM cells in presence of thymidine and absence of hypoxanthine
# [5] = biological target: Bifunctional purine biosynthesis protein ATIC (Homo sapiens, UniProt P31939); assay: Inhibition of human recombinant AICAR transformylase
# Chain of Bifunctional purine biosynthesis protein ATIC (P31939 whole entry): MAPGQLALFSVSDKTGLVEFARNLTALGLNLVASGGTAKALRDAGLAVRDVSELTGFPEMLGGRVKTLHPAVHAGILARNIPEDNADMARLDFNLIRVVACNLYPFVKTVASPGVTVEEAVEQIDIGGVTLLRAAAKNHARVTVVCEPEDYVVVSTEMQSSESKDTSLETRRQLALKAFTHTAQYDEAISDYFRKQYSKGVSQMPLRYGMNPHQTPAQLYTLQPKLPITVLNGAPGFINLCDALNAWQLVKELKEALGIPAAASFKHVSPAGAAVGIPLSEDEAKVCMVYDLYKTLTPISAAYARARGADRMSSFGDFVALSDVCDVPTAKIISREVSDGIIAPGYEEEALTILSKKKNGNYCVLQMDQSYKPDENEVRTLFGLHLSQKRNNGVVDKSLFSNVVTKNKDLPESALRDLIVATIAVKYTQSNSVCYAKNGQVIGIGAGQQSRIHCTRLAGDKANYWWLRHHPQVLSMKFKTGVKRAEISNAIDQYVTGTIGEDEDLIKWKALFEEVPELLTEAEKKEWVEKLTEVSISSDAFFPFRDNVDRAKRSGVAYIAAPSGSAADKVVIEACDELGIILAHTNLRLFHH
# CCRF-CEM [6] = assay: Cytotoxicity against human CCRF-CEM cells expressing reduced folate carrier in absence of thymidine and hypoxanthine
# [7] = biological target: T1, Trifunctional purine biosynthetic protein adenosine-3 (Homo sapiens, UniProt P22102); assay: Inhibition of human recombinant GAR transformylase
# T1 sequence (P22102 whole entry): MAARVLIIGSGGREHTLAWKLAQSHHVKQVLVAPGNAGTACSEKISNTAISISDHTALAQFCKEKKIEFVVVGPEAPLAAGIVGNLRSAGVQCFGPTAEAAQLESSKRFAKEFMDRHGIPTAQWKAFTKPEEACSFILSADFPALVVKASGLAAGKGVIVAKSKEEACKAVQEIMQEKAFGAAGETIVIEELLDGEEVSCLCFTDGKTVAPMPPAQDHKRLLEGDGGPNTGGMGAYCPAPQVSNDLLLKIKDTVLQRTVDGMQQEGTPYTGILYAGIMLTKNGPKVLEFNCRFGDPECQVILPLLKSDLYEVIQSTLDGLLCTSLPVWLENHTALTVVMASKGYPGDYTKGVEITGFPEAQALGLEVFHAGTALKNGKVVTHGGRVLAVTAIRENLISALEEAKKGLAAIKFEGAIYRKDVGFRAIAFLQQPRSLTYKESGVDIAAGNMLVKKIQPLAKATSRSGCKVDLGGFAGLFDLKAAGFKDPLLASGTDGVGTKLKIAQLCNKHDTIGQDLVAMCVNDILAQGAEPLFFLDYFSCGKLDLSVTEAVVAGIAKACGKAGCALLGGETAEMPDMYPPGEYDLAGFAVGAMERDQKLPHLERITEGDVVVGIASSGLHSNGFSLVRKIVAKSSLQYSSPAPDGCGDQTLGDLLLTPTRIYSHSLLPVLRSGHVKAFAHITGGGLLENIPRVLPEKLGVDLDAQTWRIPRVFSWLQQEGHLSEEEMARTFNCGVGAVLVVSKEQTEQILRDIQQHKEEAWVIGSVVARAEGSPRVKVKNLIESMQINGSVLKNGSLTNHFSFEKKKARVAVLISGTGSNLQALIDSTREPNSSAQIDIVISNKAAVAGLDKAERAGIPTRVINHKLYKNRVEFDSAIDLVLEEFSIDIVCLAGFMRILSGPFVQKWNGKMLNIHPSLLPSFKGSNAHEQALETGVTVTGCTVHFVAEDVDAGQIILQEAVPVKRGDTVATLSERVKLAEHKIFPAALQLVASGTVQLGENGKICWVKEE
Compound,IC50 (CCRF-CEM [1]) [µM],IC50 (CCRF-CEM [2]) [µM],IC50 (CCRF-CEM [3]) [nM],IC50 (CCRF-CEM [4]) [nM],Ki [5] [µM],IC50 (CCRF-CEM [6]) [nM],Ki [7] [nM]
Nc1nc(N)c(CCCC(C(=O)C(F)(F)F)c2ccc(C(=O)N[C@@H](CCC(=O)O)C(=O)O)cc2)c(=O)[nH]1 (some centres not stated),> 10,> 10,16,17,> 100,–,–
CS[C@@H](CCCc1c(N)nc(N)[nH]c1=O)c1ccc(C(=O)N[C@@H](CCC(=O)O)C(=O)O)cc1,5,> 10,50,70,> 100,60,–
CO[C@H](CCCc1c(N)nc(N)[nH]c1=O)c1ccc(C(=O)N[C@@H](CCC(=O)O)C(=O)O)cc1,6,> 10,500,700,> 100,600,–
Nc1nc(N)c(CCCC2(c3ccc(C(=O)N[C@@H](CCC(=O)O)C(=O)O)cc3)SCCCS2)c(=O)[nH]1,–,> 10,> 100000,> 100000,20,–,–
Nc1nc(N)c(CCC[C@@H](O)c2ccc(C(=O)N[C@@H](CCC(=O)O)C(=O)O)cc2)c(=O)[nH]1,> 10,> 10,2400,5700,> 100,–,1100
CS[C@H](CCCc1c(N)nc(N)[nH]c1=O)c1ccc(C(=O)N[C@@H](CCC(=O)O)C(=O)O)cc1,5.5,> 10,80,80,> 100,70,–
Nc1nc(N)c(CCC[C@H](O)c2ccc(C(=O)N[C@@H](CCC(=O)O)C(=O)O)cc2)c(=O)[nH]1,> 10,> 10,–,–,> 100,–,–
CO[C@@H](CCCc1c(N)nc(N)[nH]c1=O)c1ccc(C(=O)N[C@@H](CCC(=O)O)C(=O)O)cc1,> 10,> 10,700,900,> 100,900,–
Nc1nc(N)c(CCCCc2ccc(C(=O)N[C@@H](CCC(=O)O)C(=O)O)cc2)c(=O)[nH]1 [DIDEAZAACYCLOTETRAHYDROFOLIC ACID],> 10,> 10,2700,3600,20,> 100000,–
Nc1nc2c(c(=O)[nH]1)C[C@@H](CCc1ccc(C(=O)N[C@@H](CCC(=O)O)C(=O)O)cc1)CN2 [LOMETREXOL],> 10,> 10,–,–,> 100,> 100000,–
